Literature values, collected in publication PMC7456637, “Pharmacokinetic characterization of fluorocoxib D, a cyclooxygenase-2-targeted optical imaging agent for detection of cancer” (Journal of Biomedical Optics, 2020).

Legend:
[1] = test system: COX2; details: cited from earlier work
[2] = test system: RAW264.7 macrophages; set-up: method as in PMID 20430759; details: cited from earlier work
[3] = test system: COX1; details: cited from earlier work
[4] = administrated orally; cited from earlier work
[5] = dog, in vivo, po, 2 mg/kg; cited from earlier work

Row | Compound | IC50 [1] [µM] | IC50 [2] [nM] | IC50 [3] [nM] | Bioavailability [4] [%] | Elimination t1/2 [5] [h]
1 | COc1ccc2c(c1)c(CC(=O)O)c(C)n2C(=O)c1ccc(Cl)cc1 [Indomethacin, reference compound] | […] | 10 | […] | 100 | 
2 | CCc1ccc(Nc2c(F)c(F)cc(F)c2F)c(CC(=O)O)c1 [robenacoxib] |  |  |  |  | 1.1
